The text below walks through data of patent publication US5399697A, “N,N',N'-trisubstituted-5-bisaminomethylene-1,3-dioxane-4,6-dione inhibitors of acyl-CoA:cholesterol-acyl transferase” (American Home Products Corporation, priority 1993, dated 1995).

For assay [1], the system named is plasma cholesterol. Description: Plasma cholesterol in cholesterol-cholic acid fed rats. The class given is in vivo. The settings on record: Rattus norvegicus, oral gavage; for change in vivo at 40 mg/kg / change in vivo at 60 mg/kg / change in vivo at 100 mg/kg / change in vivo at 20 mg/kg: 96 h, four days; for ED50: fifty percent reduction of plasma cholesterol. As to the method: In addition, representative compounds were studied in vivo in cholesterol-cholic acid fed rats to determine the percent decrease of cholesterol in their plasma. This study involves rats which are, prior to testing, trained for one week to eat over a four hour time period each day. Upon initiation of the experiment, the rats diet is supplemented with 1.0 percent cholesterol and 0.25 percent cholic acid. The rats are dosed with the test compound by oral gavage just prior to adjust following the four hour feeding period. This is repeated for four days. On the fifth day, the rats are sacrificed and the total plasma cholesterol content is determined. The percent decrease in elevated plasma cholesterol levels is calculated in comparison with […].

The subject of assay [2] is acyl-coenzyme A: cholesterol acyltransferase. Description: Inhibition of ACAT / intracellular cholesterol esterification in vitro (procedure of Ross et al.). The class given is cell-based. The settings on record: for IC50: read-out: IC50.
For assay [3], the system named is cholesterol absorption. Description: 14C-cholesterol absorption in normal rats (oral gavage). The note with it: Rattus norvegicus; for ED50: normal fed rats. In kind it is in vivo. As to the method: Representative compounds were further tested in vivo to establish the percent inhibition of cholesterol absorption. In this study, normal rats were dosed (oral gavage) with ^14 C-cholesterol plus the test compound. Blood samples taken at six hours and/or intermittently up to twenty-four hours were analyzed and the percent inhibition of cholesterol absorption was calculated.

[4] abbreviates: read-out: % Decrease in Plasma Cholesterol.
Where [5] appears, read: normal rats, read-out: % Inhibition of Absorption.

Read-outs that look alike come from different tables or passages of the source.

`CCCCCC(C)N(Cc1ccc(C(C)(C)C)cc1)C(Nc1ccc(OCCCC)cc1)=C1C(=O)OC(C)(C)OC1=O` (stereo not drawn) [Compound 27, 5-[[(4-Butoxyphenyl)amino][[[4-(1,1-dimethylethyl)phenyl]methyl](1-methylhexyl)amino]-methylene]-2,2-dimethyl-1,3-dioxane-4,6-dione]: the change in vivo at 40 mg/kg in assay [1] (setting [4]) was -31%. The “% Inhibition” value in assay [2] (25 μM) is 96%. Further, the IC50 in assay [2] is 0.23 µM. Also, in assay [3] (setting [5]), the change in vivo at 20 mg/kg was -58%.

Consider `CCCCCC(C)N(Cc1ccc(CC(C)C)cc1)C(Nc1ccc(OC)cc1OC)=C1C(=O)OC(C)(C)OC1=O` (stereo not drawn) [Compound 32, 5-[[(2,4-Dimethoxyphenyl)amino][(1-methylhexyl)[[4-(2-methylpropyl)phenyl]methyl]amino]-methylene]-2,2-dimethyl-1,3-dioxane-4,6-dione], for which, in assay [1] (heading: % Decrease in Plasma Cholesterol), the change in vivo at 60 mg/kg was -97%. For the same compound, the median effective dose (ED50) in assay [1] was found to be 17 mg/kg; in assay [3] it was 4 mg/kg. Besides, the “% Inhibition” value in assay [2] (25 μM) came to 98%. Moreover, the IC50 in assay [2] amounted to 0.24 µM. Besides, the change in vivo at 20 mg/kg in assay [3] (setting [5]) was -79%.

As for `CCCCCCCN(Cc1ccc(C(C)(C)C)cc1)C(Nc1ccc(N(C)C)cc1)=C1C(=O)OC(C)(C)OC1=O` [Compound 5, 5-[[[4-(Dimethylamino)phenyl]amino][[[4-(1,1-dimethylethyl)phenyl]methyl]heptylamino]methylene]-2,2-dimethyl-1,3-dioxane-4,6-dione], the change in vivo at 100 mg/kg in assay [1] (setting [4]) was -35%. For the same compound, the “% Inhibition” value in assay [2] (25 μM) came to 99%. Besides, in assay [2], the IC50 was 1.1 µM. Moreover, in assay [3] (setting [5]), the change in vivo at 200 mg/kg was -91%.

On to `CC(C)Cc1ccc(CN(C(Nc2ccc(N(C)C)cc2)=C2C(=O)OC(C)(C)OC2=O)C(C)CCCC(C)(C)O)cc1` (stereo not drawn) [Compound 53], for which the “% Inhibition” value in assay [2] (25 μM) amounted to 81%. Besides, in assay [2], the IC50 was 5.2 µM. Besides, in assay [3] (setting [5]), the change in vivo at 10 mg/kg is -50%.

Consider `CC(C)CCCC(C)N(Cc1ccc(CC(C)C)cc1)C(Nc1ccc(N(C)C)cc1)=C1C(=O)OC(C)(C)OC1=O` (stereo not drawn) [Compound 42], for which the change in vivo at 40 mg/kg in assay [1] (setting [4]) was -63%. The “% Inhibition” value in assay [2] (25 μM) turned out to be 98%. Besides, the IC50 in assay [2] came to 0.27 µM. Also, the 50% effect level in assay [3] (ED50) was put at a dose of 5 mg/kg.

On to `CCCCCC(C)N(Cc1ccc(C(C)(C)C)cc1)C(Nc1ccc(N(C)C)cc1)=C1C(=O)OC(C)(C)OC1=O` (stereo not drawn) [Compound 21, 5-[[[4-(Dimethylamino)phenyl]amino][[[4-(1,1-dimethylethyl)phenyl]methyl](1-methylhexyl)-amino]methylene]-2,2-dimethyl-1,3-dioxane-4,6-dione], for which the change in vivo at 100 mg/kg in assay [1] (setting [4]) was -78%. Also, the “% Inhibition” value in assay [2] (25 μM) stood at 98%. Also, the IC50 in assay [2] amounted to 0.25 µM. For the same compound, in assay [3] (normal rats, 75 mg/kg, read-out: % Inhibition of Absorption), the change in vivo at 75 mg/kg was -83%.

On to `COc1ccc(NC(=C2C(=O)OC(C)(C)OC2=O)N(Cc2ccc(CC(C)C)cc2)C(C)CCCC(C)(C)O)c(OC)c1` (stereo not drawn) [Compound 52, 5-[[(2,4-Dimethoxyphenyl)amino][(5-hydroxy-1,5-dimethylhexyl)[[4-(2-methylpropyl)phenyl]-methyl]amino]methylene]-2,2-dimethyl-1,3-dioxane-2,4-dione], for which, in assay [2] (25 μM), the “% Inhibition” value was 89%. For the same compound, in assay [2], the IC50 came to 5.6 µM. Further, the change in vivo at 10 mg/kg in assay [3] (setting [5]) was -29%.

As for `CCCCCC(C)N(Cc1ccc(C(C)(C)C)cc1)C(Nc1ccc(OC)cc1OC)=C1C(=O)OC(C)(C)OC1=O` (stereo not drawn) [Compound 4, 5-[[(2,4-Dimethoxophenyl)amino][[[4-(1,1-dimethylethyl)phenyl]methyl](1-methylhexyl)amino]-methylene]-2,2-dimethyl-1,3-dioxane-4,6-dione], the change in vivo at 100 mg/kg in assay [1] (setting [4]) is -98%. Besides, the ED50 in assay [1] came out at 64 mg/kg; in assay [3], 10 mg/kg. In assay [2] (25 μM), the “% Inhibition” value is given as 99%. For the same compound, the IC50 in assay [2] is 0.26 µM. The change in vivo at 200 mg/kg in assay [3] (setting [5]) was -93%.

As to `COc1ccc(NC(=C2C(=O)OC(C)(C)OC2=O)N(Cc2ccc(CC(C)C)cc2)C2CCN(CCc3ccccc3)CC2)c(OC)c1` [Compound 8, 5-[[(2,4-Dimethoxyphenyl)amino][[[4-(2-methylpropyl)phenyl]methyl][1-(phenylethyl)-4-piperidinyl]amino]methylene]-2,2-dimethyl-1,3-dioxane-4,6-dione], in assay [2] (25 μM), the “% Inhibition” value stood at 85%. Further, the IC50 in assay [2] was 5.6 µM. In addition, the change in vivo at 10 mg/kg in assay [3] (setting [5]) was -16%.

For the compound `CCCCCC(C)N(Cc1ccc(CC(C)(C)C)cc1)C(Nc1ccc(N(C)C)cc1C)=C1C(=O)OC(C)(C)OC1=O` (stereo not drawn) [Compound 47], the values for the ED50 in assay [1] and in assay [3] were 16 mg/kg and 3 mg/kg, respectively. For the same compound, in assay [2] (25 μM), the “% Inhibition” value is 98%. Also, the 50% inhibitory concentration (IC50) in assay [2] worked out at 0.26 µM. Moreover, the change in vivo at 10 mg/kg in assay [3] (setting [5]) is -83%.

In the case of `CCCCCC(C)N(Cc1ccc(CC(C)(C)C)cc1)C(Nc1ccc(N(C)C)cc1)=C1C(=O)OC(C)(C)OC1=O` (stereo not drawn) [Compound 37], the change in vivo at 40 mg/kg in assay [1] (setting [4]) was -72%. Besides, in assay [1], the 50% effect level (ED50) was put at a dose of 18 mg/kg. Moreover, the “% Inhibition” value in assay [2] (25 μM) came out at 99%. Besides, the IC50 in assay [2] is 0.69 µM. Also, the change in vivo at 50 mg/kg in assay [3] (setting [5]) was -85%.

For `CCCCCCCN(Cc1ccc(C(C)(C)C)cc1)C(Nc1ccc(OC)cc1OC)=C1C(=O)OC(C)(C)OC1=O` [Compound 2], the ED50 was found to be 99 mg/kg in assay [1] and 44 mg/kg in assay [3]. For the same compound, in assay [2] (50 μM), the “% Inhibition” value is listed as 85%. Further, the IC50 in assay [2] was 0.9 µM. Moreover, the change in vivo at 200 mg/kg in assay [3] (setting [5]) is -88%.

Take `CCCCCc1ccc(CN(C(Nc2ccc(N(C)C)cc2)=C2C(=O)OC(C)(C)OC2=O)C(C)CCCCC)cc1` (stereo not drawn) [Compound 41, 5-[[[4-(Dimethylamino)phenyl]amino][(1-methylhexyl)[(4-pentylphenyl)methyl]amino]-methylene]-2,2-dimethyl-1,3-dioxane-4,6-dione]: in assay [1] (setting [4]), the change in vivo at 40 mg/kg is -89%. For the same compound, the ED50 in assay [1] worked out at 7 mg/kg; in assay [3] it was 3 mg/kg. Also, the “% Inhibition” value in assay [2] (25 μM) is 98%. Moreover, the IC50 in assay [2] was 0.26 µM.

Take `CCCCCC(C)N(Cc1ccc(CC(C)(C)C)cc1)C(Nc1c(C)cc(N(C)C)cc1C)=C1C(=O)OC(C)(C)OC1=O` (stereo not drawn) [Compound 33, 5-[[[2,6-Dimethyl-4-(dimethylamino)phenyl]amino][[[4-(2,2-dimethylpropyl)phenyl]methyl](1-methylhexyl)amino]methylene]-2,2-dimethyl-1,3-dioxane-4,6-dione]: in assay [1] (setting [4]), the change in vivo at 20 mg/kg is -30%. In addition, the “% Inhibition” value in assay [2] (25 μM) came out at 98%. Also, in assay [2], the IC50 amounted to 0.38 µM. Moreover, the change in vivo at 50 mg/kg in assay [3] (setting [5]) was -86%.

Consider `CC1(C)OC(=O)C(=C(Nc2cc(C(C)(C)C)c(O)c(C(C)(C)C)c2)Nc2cnc3ccccc3c2)C(=O)O1` [Compound 81, 5-[(3,5-Di-tert-butyl-4-hydroxy-phenylamino)-(quinolin-3-ylamino)-methylene]-2,2-dimethyl-[1,3]dioxane-4,6-dione], for which the “% Inhibition” value in assay [2] (50 μM) came out at 90%. In assay [3] (normal rats, 3 mg/kg, read-out: % Inhibition of Absorption), the change in vivo at 3 mg/kg is -90%.

As for `CCCCCCCN(Cc1ccc(CC(C)C)cc1)C(Nc1ccc(OC)cc1OC)=C1C(=O)OC(C)(C)OC1=O` [Compound 31, 5-[[(2,4,-Dimethoxyphenyl)amino][heptyl[[4-(2-methylpropyl)phenyl]methyl]amino]methylene]-2,2-dimethyl-1,3-dioxane-4,6-dione], the change in vivo at 60 mg/kg in assay [1] (setting [4]) was -71%. The “% Inhibition” value in assay [2] (25 μM) was 97%. Besides, in assay [2], the IC50 was 0.91 µM.

As for `CCCCCCCN(Cc1ccc(CCC(C)C)cc1)C(Nc1ccc(OC)cc1OC)=C1C(=O)OC(C)(C)OC1=O` [Compound 55, 5-[[(2,4-Dimethoxyphenyl)amino][heptyl[[4-(3-methylbutyl)phenyl]methyl]amino]methylene]2,2-dimethyl-1,3-dioxane-4,6-dione], in assay [1] (setting [4]), the change in vivo at 20 mg/kg is -40%. In addition, the “% Inhibition” value in assay [2] (25 μM) is on record as 97%. For the same compound, the IC50 in assay [2] was 3 µM.

`CCCCCC(C)N(Cc1ccc(OCCC(C)C)cc1)C(Nc1ccc(N(C)C)cc1)=C1C(=O)OC(C)(C)OC1=O` (stereo not drawn) [Compound 38, 5-[[[4-(Dimethylamino)phenyl]amino][[[4-(3-methylbutoxy)phenyl]methyl](1-methylhexylhexyl)amino]methylene]-2,2-dimethyl-1,3-dioxane-4,6-dione]: the change in vivo at 40 mg/kg in assay [1] (setting [4]) is -58%. Besides, in assay [2] (25 μM), the “% Inhibition” value was 99%. Also, the IC50 in assay [2] amounted to 0.21 µM.

For `CCCCCCCN(Cc1ccc(C(C)(C)C)cc1)C(Nc1c(OC)cc(OC)cc1OC)=C1C(=O)OC(C)(C)OC1=O` [Compound 59, 5-[[[[4-(1,1-Dimethylethyl)phenyl]methyl]heptylamino][(2,4,6-trimethoxyphenyl)amino]-methylene]-2,2-dimethyl-1,3-dioxane-4,6-dione], the “% Inhibition” value in assay [2] (25 μM) is 94%. The IC50 in assay [2] came out at 0.7 µM. Also, the change in vivo at 200 mg/kg in assay [3] (setting [5]) is -21%.
